Experimental data published in paper PMC7822874, “Chemoprotective antimalarials identified through quantitative high-throughput screening of Plasmodium blood and liver stage parasites” (Scientific Reports, 2021).

tested on: Plasmodium falciparum Dd2 asexual blood stage parasites; experiment: microbe, parasite or virus in culture; design: species or system Plasmodium falciparum Dd2 in human erythrocytes; single determination (one 11-point concentration-response curve); conditions: Plasmodium falciparum, DD2, Erythrocyte, 72 h

Row | SMILES | AC50
1 | CC(C(=O)c1c[nH]c2ccccc12)N1CCN(C(=O)c2ccco2)CC1 (stereo not drawn) [MLS000768379-01] | 5.96 µM

same assay, conditions: Plasmodium falciparum, DD2, Erythrocyte, 72 h; read-out: AC50

Row | SMILES | AC50
2 | Cc1cc(Nc2nc3ccccc3nc2Cl)n(-c2ccccc2C)n1 [MLS000595322-01] | 0.841 µM
3 | Cc1ccc(-n2ncc3c(NCc4ccco4)ncnc32)cc1C [MLS000622044-01] | 15 µM
4 | CN1CCN(c2ccc(NC(=O)c3ccc(-c4cccc([N+](=O)[O-])c4)o3)cc2)CC1 [MLS000663772-01] | 4.73 µM
5 | COc1ccc(C2CC(c3cccs3)=NN2C(=O)c2ccc(Br)o2)cc1 (stereo not drawn) [MLS000663972-01] | 5.31 µM
6 | Cc1ccc(-c2cc(C(F)F)n3ncc(C(=O)N4CCCCC4c4cccnc4)c3n2)cc1 (stereo not drawn) [MLS000665275-01] | 2.37 µM
7 | CCc1cc(=O)oc2cc(C)cc(OCC(=O)C(C)(C)C)c12 [MLS000666007-01] | 11.9 µM
8 | O=C(CC1C(=O)N(Cc2ccccc2)C(=S)N1CCN1CCOCC1)Nc1ccc(F)cc1 (stereo not drawn) [MLS000672078-01] | 5.31 µM
9 | CCc1ccc(CN2CCN(Cc3cc(Br)ccc3O)CC2)cc1 [MLS000673664-01] | 2.11 µM
10 | OC(CNCc1cccc(Br)c1)c1ccccc1 (stereo not drawn) [MLS000676112-01] | 5.96 µM
11 | CCOc1cc(CNCC(O)c2ccccc2)cc(Cl)c1OC (stereo not drawn) [MLS000676147-01] | 3.35 µM
12 | CCOc1c(Cl)cc(CNC(C)C(O)c2ccccc2)cc1OC (stereo not drawn) [MLS000679789-01] | 6.68 µM
13 | SC(=NCc1ccccc1)N1CCn2cccc2C1c1cccnc1 (stereo not drawn) [MLS000683224-01] | 9.44 µM
14 | O=C(C[n+]1c2n(c3ccccc31)CC(O)CS2)c1ccccc1 (stereo not drawn) [MLS000687555-01] | 10.6 µM
15 | COc1ccc(S(=O)(=O)N2CCN(/C(S)=N/C3CCCCC3)CC2)cc1 [MLS000690529-01] | 6.68 µM
16 | O=C(NNc1nc(-c2ccc(Br)cc2)cs1)c1ccco1 [MLS000699189-01] | 5.31 µM
17 | O=C(Nc1ccc(C(=O)OC[C@@H]2CCCN3CCCC[C@H]23)cc1)c1cccc(Br)c1 [MLS000700112-01] | 6.68 µM
18 | Cc1ccc(NC(=O)CC2SC(NC3CCCCC3)=NC2=O)cc1 (stereo not drawn) [MLS000700518-01] | 11.9 µM
19 | CCOC(=O)C(C)/C(C)=N/N=C(\N)S (stereo not drawn) [MLS000701955-01] | 2.66 µM
20 | c1ccc(Sc2cccc3ccccc23)c(CNC2=NCCN2)c1 [MLS000702748-01] | 13.3 µM
21 | CCOc1ccc(C2C(C(=O)Nc3ccccc3)=C(C)N=c3sc(=Cc4cccc(OCC(=O)O)c4)c(=O)n32)cc1 (stereo not drawn) [MLS000705052-01] | 5.31 µM
22 | COc1ccc(C2=[N+](C)CCn3cccc32)c(OC)c1 [MLS000705896-01] | 10.6 µM

Row | SMILES | AC50
23 | Cc1ccc2oc(=O)n(CCOc3ccccc3C)c2c1 [MLS000708194-01] | 4.73 µM
24 | CCC(C)NC(=O)c1ccccc1NC(=O)C1COc2ccccc2O1 (stereo not drawn) [MLS000708698-01] | 10.6 µM
25 | Cc1ccc(CN2C3CCCC2CC(NC(=O)Nc2cccc(F)c2)C3)cc1 (stereo not drawn) [MLS000709814-01] | 10.6 µM
26 | Cc1nc2cc(F)ccc2n1C1CCN(C(=O)c2c(F)cccc2F)CC1 [MLS000710077-01] | 5.96 µM
27 | O=C(NC1CCCCC1)C(c1cccs1)N(CCCN1CCOCC1)C(=O)c1ccc(-c2ccccc2)[nH]1 (stereo not drawn) [MLS000711767-01] | 4.73 µM
28 | CN1CCN(c2nc(Nc3ccc(O)cc3)nc3ccccc23)CC1 [MLS000716977-01] | 4.22 µM
29 | CC(C)C(=O)Nc1oc(-c2ccccc2)cc1C#N [MLS000721149-01] | 6.68 µM
30 | Cc1ccc(CNCC(O)(c2ccccc2)c2ccc(Cl)cc2)cc1 (stereo not drawn) [MLS000721405-01] | 2.99 µM
31 | CCOC(=O)C1=C(C)NC(=O)CC1c1cc(OC)c(OC)cc1Br (stereo not drawn) [MLS000723492-01] | 5.31 µM
32 | O=C1NC(=O)/C(=C\c2ccc(N3CCOCC3)o2)N1 [MLS000724369-01] | 9.44 µM
33 | CCOC(=O)c1nnn(-c2nonc2N)c1-c1ccc(Cl)cc1 [MLS000727794-01] | 5.31 µM
34 | CCOC(=O)c1nnn(-c2nonc2N)c1-c1ccc(Br)cc1 [MLS000727795-01] | 2.66 µM
35 | O=c1c([N+](=O)[O-])cccn1Cc1ccc(F)cc1Cl [MLS000728802-01] | 4.73 µM
36 | Cn1cc(CN2CCCC(CO)(Cc3ccccc3)C2)cn1 (stereo not drawn) [MLS000732297-01] | 5.96 µM
37 | CCCN1CCC(NCc2cn(C)nc2-c2ccc(Oc3ccccc3)cc2)CC1 [MLS000732385-01] | 4.73 µM
38 | COc1ccc(-n2cc(CNC3CCN(C)CC3)c(-c3cccc(F)c3)n2)cc1 [MLS000732463-01] | 10.6 µM
39 | CN1N=C(C(=O)N2CCc3c([nH]c4ccccc34)C2c2ccccc2Cl)CCC1=O (stereo not drawn) [MLS000733406-01] | 5.31 µM
40 | COc1ccc(-n2cc(CNCCCn3ccnc3)c(-c3ccccc3Cl)n2)cc1 [MLS000734282-01] | 3.35 µM
41 | COc1ccc2c(c1)C=C([C@@H]1C[C@H]3CN(c4ccccc4)C(=O)[C@]34CCCN14)CO2 [MLS000734809-01] | 0.944 µM
42 | Cc1ccccc1CN1C[C@@H]2C[C@@H](c3c[nH]nc3-c3ccccc3)N3CCC[C@@]23C1=O [MLS000735381-01] | 15 µM
43 | Cc1ccc(-n2cc(CNCCc3nc(C)c[nH]3)c(-c3ccc(F)cc3)n2)cc1 [MLS000735387-01] | 15 µM

Row | SMILES | AC50
44 | CC1(c2ccccc2)O[C@@H]2C[C@H]3[C@@H]4CCC5=CC(=O)C=C[C@]5(C)[C@@]4(F)[C@@H](O)C[C@]3(C)[C@]2(C(=O)CO)O1 (stereo partly drawn) [MLS000738166-01] | 4.73 µM
45 | Cc1sc2[nH]c(-c3ccccn3)nc(=O)c2c1-c1ccccc1 [MLS000760132-01] | 13.3 µM
46 | COc1ccc(S(=O)(=O)N(C)C)cc1NC(C)C(=O)Nc1cccc(C#N)c1 (stereo not drawn) [MLS000761043-01] | 6.68 µM
47 | CC(C)CCNC(=O)c1cc(C(=O)c2cc(F)ccc2O)cn(CCC(C)C)c1=O [MLS000761418-01] | 2.11 µM
48 | CC(C)CN(Cc1cc(=O)oc2cc3c(cc12)CCCC3)CC(C)C [MLS000763058-01] | 15 µM
49 | C#Cc1ccc(C(=O)Nc2ccc(N3CCC(C)CC3)c(C(N)=O)c2)cc1 [MLS000764680-01] | 6.68 µM
50 | Cc1ccc(C)c(-n2c(-c3ccc(Br)cc3)csc2=NC(=O)c2ccccc2F)c1 [MLS000766129-01] | 4.73 µM
51 | C=CCOC(=O)C1=C[C@@H](c2ccc(C(F)(F)F)cc2)[C@H](CCCO)[C@@H](OCC)O1 [MLS000766375-01] | 7.5 µM
52 | CCC(=O)NC(N)=Nc1nc(C)c2cc(C)c(C)cc2n1 [MLS000768400-01] | 9.44 µM
53 | Cn1c(=O)[nH]c2nnc(-c3ccc(Cl)c(Cl)c3)nc2c1=O [MLS000768805-01] | 8.41 µM
54 | Cc1ccccc1Oc1nc(-c2ccccn2)nc2ccccc12 [MLS000769500-01] | 6.68 µM
55 | Fc1ccc(Oc2nc(-c3ccccn3)nc3ccccc23)cc1 [MLS000769507-01] | 13.3 µM
56 | Cc1cccc(Oc2nc(-c3ccncc3)nc3ccccc23)c1 [MLS000769517-01] | 7.5 µM
57 | COc1ccc(Oc2nc(-c3ccccn3)nc3ccccc23)cc1 [MLS000769536-01] | 2.99 µM
58 | CCCOc1ccc(Oc2nc(-c3ccncc3)nc3ccccc23)cc1 [MLS000769540-01] | 4.22 µM
59 | O=C(N/N=C/c1ccc(OCc2ccccc2)cc1)c1ccco1 [MLS000769970-01] | 13.3 µM
60 | Cc1ccc(C)c(NC(=O)CN(C)C(=O)c2cc3ccccc3o2)c1 [MLS000770584-01] | 13.3 µM
61 | O=C(Nc1ccc(Cl)cc1)Nc1nc(-c2ccccc2O)cs1 [MLS000774885-01] | 6.68 µM
62 | CCOC(=O)c1c(CN2CCN(CCO)CC2)n(-c2ccccc2)c2cc(Br)c(O)cc12 [MLS000778151-01] | 5.96 µM
63 | Cc1c(O)c(CN(C)C)cc2c1oc(=O)c1ccccc12 [MLS000778334-01] | 4.22 µM
64 | CCOC(=O)c1c(CN(CC)CC)n(C)c2cc(Br)c(O)cc12 [MLS000778381-01] | 9.44 µM

Row | SMILES | AC50
65 | COc1ccc(C2c3ccc(O)cc3Oc3ncn4nc(-c5ccncc5)nc4c32)cc1OC (stereo not drawn) [MLS000778948-01] | 15 µM
66 | CC(=O)Nc1nc2ccccc2n1Cc1ccc(Cl)cc1 [MLS000779302-01] | 8.41 µM
67 | CC(C)CNc1nnnc2c1sc1nc(N3CCOCC3)c3c(c12)CCCC3 [MLS000779378-01] | 15 µM
68 | COC(=O)C1=C(C)N(c2ccc(OC)cc2)C(C)=C(C(=O)OC)C1c1ccccc1 [MLS000780021-01] | 9.44 µM
69 | Cn1nc(C(F)(F)F)c(-c2ccc(F)cc2)c1NC(=O)Nc1ccc(F)cc1 [MLS000830769-01] | 1.88 µM
70 | O=C(C1=C[C@H](c2csc3ccccc23)C[C@H](OCCCCO)O1)N1CCN(Cc2ccc3c(c2)OCO3)CC1 [MLS000834451-01] | 13.3 µM
71 | CCO[C@H]1OC(C(=O)N2CCN(Cc3ccc4c(c3)OCO4)CC2)=C[C@@H](c2cn(C(C)=O)c3ccccc23)[C@@H]1CCCO [MLS000834466-01] | 8.41 µM
72 | CCO[C@@H]1OC(C(=O)N2CCN(Cc3ccc4c(c3)OCO4)CC2)=C[C@H](c2cn(C(C)=O)c3ccccc23)[C@H]1CCCO [MLS000834519-01] | 9.44 µM
73 | CC(C)=NOC(=O)c1c(C)noc1-c1snnc1C [MLS000834920-01] | 6.68 µM
74 | CCNc1nc(NC(C)CC)nc(ON=C(C)C)n1 (stereo not drawn) [MLS000856336-01] | 8.41 µM
75 | N=c1c2c3c(sc2ncn1Nc1ccccc1)CCC3 [MLS000858994-01] | 3.35 µM
76 | Cc1ccc(-c2nc(NC(=O)c3cc(C(C)(C)C)nn3C)sc2C)cc1Cl [MLS000860650-01] | 10.6 µM
77 | Cc1cc(Nc2cc(Cl)cc(Cl)c2)nc(N)n1 [MLS000861564-01] | 6.68 µM
78 | CN1N=C2c3ccccc3CCC2C1c1ccc(F)cc1 (stereo not drawn) [MLS000861852-01] | 5.96 µM
79 | CN(C)CCN1C(=O)c2oc3ccc(Cl)cc3c(=O)c2C1c1cccc(Br)c1 (stereo not drawn) [MLS000862131-01] | 0.531 µM
80 | Cc1nn(-c2ccccc2)c2c1C(c1cccnc1)N1C=C(S(=O)(=O)N3CCCCC3)C=CC1=N2 (stereo not drawn) [MLS000863363-01] | 15 µM
81 | COC(=O)c1cc(O)cc(OC)c1Oc1cc(C)cc(O)c1C(=O)O [MLS000863583-01] | 4.22 µM
82 | CCOC(=O)c1ccccc1NC1c2ccccc2C(=O)N1C1CCN(C(=O)OCC)CC1 (stereo not drawn) [MLS000878310-01] | 13.3 µM
83 | CCN1CCN(c2cc(C)c3cc(NC(=O)c4ccc(Br)o4)ccc3n2)CC1 [MLS000878990-01] | 6.68 µM
84 | COc1cc(O)c(C(CCN2CCCCC2)c2cc(OC)c(OC)c(OC)c2)c(OC)c1 (stereo not drawn) [MLS000879476-01] | 2.66 µM
